Experimental data reported in PubChem BioAssay AID1963865 (Molecular Pharmacology Branch, DTP, NCI, 2024).
pIC50: −log10 of the molar value.

System: KRAS PDC multicell spheroid viability
Experiment: Anticancer human tumor 825966-067-R-J1-PDC patient-derived colon carcinoma cell line growth inhibition [KRAS2]
Settings: for pIC50: curve of first compound; for viability, T/C: stronger effect = lower value
In short: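 KRAS-mutant tumor cells were grown as spheroids with HUVEC endothelial cells and human MSCs as stroma. Targeted agents were tested alone and with KRAS pathway inhibitors. Doses started at or near clinical Cmax, or 10 microM, descending half-log.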

[1] = second compound 0.1 µM, first compound 0.0316 µM
[2] = second compound 0.1 µM, first compound 0.1 µM
[3] = second compound 0.1 µM, first compound 0.316 µM
[4] = second compound 0.1 µM, first compound 1 µM
[5] = second compound 0.1 µM, first compound 3.16 µM
[6] = second compound 0.1 µM, first compound 10 µM
[7] = second compound 0.316 µM, first compound 0.0316 µM
[8] = second compound 0.316 µM, first compound 0.1 µM
[9] = second compound 0.316 µM, first compound 0.316 µM
[10] = second compound 0.316 µM, first compound 1 µM
[11] = second compound 0.316 µM, first compound 3.16 µM
[12] = second compound 0.316 µM, first compound 10 µM
[13] = second compound 1 µM, first compound 0.0316 µM
[14] = second compound 1 µM, first compound 0.1 µM
[15] = second compound 1 µM, first compound 0.316 µM
[16] = second compound 1 µM, first compound 1 µM
[17] = second compound 1 µM, first compound 3.16 µM
[18] = second compound 1 µM, first compound 10 µM
[19] = second compound 3.16 µM, first compound 0.0316 µM
[20] = second compound 3.16 µM, first compound 0.1 µM
[21] = second compound 3.16 µM, first compound 0.316 µM
[22] = second compound 3.16 µM, first compound 1 µM
[23] = second compound 3.16 µM, first compound 3.16 µM
[24] = second compound 3.16 µM, first compound 10 µM
[25] = second compound 10 µM, first compound 0.0316 µM
[26] = second compound 10 µM, first compound 0.1 µM
[27] = second compound 10 µM, first compound 0.316 µM
[28] = second compound 10 µM, first compound 1 µM
[29] = second compound 10 µM, first compound 3.16 µM
[30] = second compound 10 µM, first compound 10 µM
[31] = second compound 0.1 µM, first compound 0.01 µM
[32] = second compound 0.316 µM, first compound 0.01 µM
[33] = second compound 1 µM, first compound 0.01 µM
[34] = second compound 3.16 µM, first compound 0.01 µM
[35] = second compound 10 µM, first compound 0.01 µM
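Note: spheroids exposed to compounds for 7 days.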
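Throughout, for viability, T/C: 100% = DMSO vehicle control viability.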

CC1OCC2(CCN(c3cnc(Sc4ccnc(N)c4Cl)c(N)n3)CC2)C1N (stereo not given) + CNCc1ccccc1-c1csc(C(C)Nc2nc(C)nc3cc(OC)c(OC)cc23)c1 gave a pIC50 (second compound 0.1 µM) of 5.12, a pIC50 (second compound 0.316 µM) of 5.16 and a pIC50 (second compound 1 µM) of 5.17. It also gave a pIC50 (second compound 3.16 µM) of 5.94, a pIC50 (second compound 10 µM) greater than 7.50 and a viability, T/C [1] of 109%. The viability, T/C [2] was 107%, the viability, T/C [3] was 101% and the viability, T/C [4] was 94.3%. It also gave a viability, T/C [5] of 101%, a viability, T/C [6] of 34.4% and a viability, T/C [7] of 84.8%. For the same molecule, the viability, T/C [8] was 107%, the viability, T/C [9] was 107% and the viability, T/C [10] was 88%. It also gave a viability, T/C [11] of 105%, a viability, T/C [12] of 26.8% and a viability, T/C [13] of 113%. For the same molecule, the viability, T/C [14] was 99.9%, the viability, T/C [15] was 94.4% and the viability, T/C [16] was 96.4%. It also gave a viability, T/C [17] of 109%, a viability, T/C [18] of 22.1% and a viability, T/C [19] of 96.4%. For the same molecule, the viability, T/C [20] was 36.9%, the viability, T/C [21] was 92.7% and the viability, T/C [22] was 30%. The viability, T/C [23] was 49.9%, the viability, T/C [24] was 0.35% and the viability, T/C [25] was 0.28%. For the same molecule, the viability, T/C [26] was 0.27%, the viability, T/C [27] was 0.35% and the viability, T/C [28] was 0.24%. For the same molecule, the viability, T/C [29] was 0.22% and the viability, T/C [30] was 0.25%.
CC(=O)OC12COC1CC(O)C1(C)C(=O)C(O)C3=C(C)C(OC(=O)C(O)C(NC(=O)OC(C)(C)C)c4ccccc4)CC(O)(C(OC(=O)c4ccccc4)C21)C3(C)C (stereo not given) + COc1cc2nc(C)nc(NC(C)c3cc(N)cc(C(F)(F)F)c3)c2cc1OC1CCOC1 showed a pIC50 (second compound 0.1 µM) greater than 8.00, a pIC50 (second compound 0.316 µM) greater than 8.00 and a pIC50 (second compound 1 µM) greater than 8.00. It also gave a pIC50 (second compound 3.16 µM) greater than 8.00, a pIC50 (second compound 10 µM) greater than 8.00 and a viability, T/C [31] of 18.9%. The viability, T/C [1] was 24.6%, the viability, T/C [2] was 35.8% and the viability, T/C [3] was 17.3%. For the same molecule, the viability, T/C [4] was 26.8%, the viability, T/C [5] was 34.5% and the viability, T/C [32] was 23.8%. For the same molecule, the viability, T/C [7] was 29.3%, the viability, T/C [8] was 23.1% and the viability, T/C [9] was 38.4%. It also gave a viability, T/C [10] of 24%, a viability, T/C [11] of 44% and a viability, T/C [33] of 16.9%. It also gave a viability, T/C [13] of 29.3%, a viability, T/C [14] of 27.6% and a viability, T/C [15] of 18.7%. The viability, T/C [16] was 24.7%, the viability, T/C [17] was 29.6% and the viability, T/C [34] was 16.6%. For the same molecule, the viability, T/C [19] was 13.4%, the viability, T/C [20] was 29.2% and the viability, T/C [21] was 16.4%. The viability, T/C [22] was 21.3%, the viability, T/C [23] was 25.1% and the viability, T/C [35] was 11.7%. The viability, T/C [25] was 15%, the viability, T/C [26] was 19.3% and the viability, T/C [27] was 14.2%. For the same molecule, the viability, T/C [28] was 20.9% and the viability, T/C [29] was 12.4%.
With CN(C)C/C=C/C(=O)Nc1cc2c(Nc3ccc(F)c(Cl)c3)ncnc2cc1O[C@H]1CCOC1 + COc1cc2nc(C)nc(NC(C)c3cc(N)cc(C(F)(F)F)c3)c2cc1OC1CCOC1 the pIC50 (second compound 0.1 µM) was less than 7.00, the pIC50 (second compound 0.316 µM) was less than 7.00 and the pIC50 (second compound 1 µM) was less than 7.00. For the same molecule, the pIC50 (second compound 3.16 µM) was less than 7.00, the pIC50 (second compound 10 µM) was less than 7.00 and the viability, T/C (second compound 0.1 µM, first compound 0.000316 µM) was 94%. For the same molecule, the viability, T/C (second compound 0.1 µM, first compound 0.001 µM) was 96.7%, the viability, T/C (second compound 0.1 µM, first compound 0.00316 µM) was 82.9% and the viability, T/C [31] was 101%. It also gave a viability, T/C [1] of 96.1%, a viability, T/C [2] of 91.8% and a viability, T/C (second compound 0.316 µM, first compound 0.000316 µM) of 103%. It also gave a viability, T/C (second compound 0.316 µM, first compound 0.001 µM) of 107%, a viability, T/C (second compound 0.316 µM, first compound 0.00316 µM) of 95.9% and a viability, T/C [32] of 98.9%. It also gave a viability, T/C [7] of 105%, a viability, T/C [8] of 103% and a viability, T/C (second compound 1 µM, first compound 0.000316 µM) of 92.2%. It also gave a viability, T/C (second compound 1 µM, first compound 0.001 µM) of 96%, a viability, T/C (second compound 1 µM, first compound 0.00316 µM) of 105% and a viability, T/C [33] of 97.2%. The viability, T/C [13] was 99.2%, the viability, T/C [14] was 83.5% and the viability, T/C (second compound 3.16 µM, first compound 0.000316 µM) was 133%. For the same molecule, the viability, T/C (second compound 3.16 µM, first compound 0.001 µM) was 119%, the viability, T/C (second compound 3.16 µM, first compound 0.00316 µM) was 107% and the viability, T/C [34] was 115%. The viability, T/C [19] was 106%, the viability, T/C [20] was 105% and the viability, T/C (second compound 10 µM, first compound 0.000316 µM) was 108%. For the same molecule, the viability, T/C (second compound 10 µM, first compound 0.001 µM) was 103%, the viability, T/C (second compound 10 µM, first compound 0.00316 µM) was 116% and the viability, T/C [35] was 106%. For the same molecule, the viability, T/C [25] was 105% and the viability, T/C [26] was 95.2%.
With O=C(c1cc(Cc2n[nH]c(=O)c3ccccc23)ccc1F)N1CCN(C(=O)C2CC2)CC1 + COc1cc2nc(C)nc(NC(C)c3cc(N)cc(C(F)(F)F)c3)c2cc1OC1CCOC1 the pIC50 (second compound 0.1 µM) was less than 5.00, the pIC50 (second compound 0.316 µM) was less than 5.00 and the pIC50 (second compound 1 µM) was less than 5.00. For the same molecule, the pIC50 (second compound 3.16 µM) was less than 5.00, the pIC50 (second compound 10 µM) was less than 5.00 and the viability, T/C [1] was 84.2%. For the same molecule, the viability, T/C [2] was 91.5%, the viability, T/C [3] was 92.3% and the viability, T/C [4] was 77.2%. It also gave a viability, T/C [5] of 69.3%, a viability, T/C [6] of 75% and a viability, T/C [7] of 80.3%. It also gave a viability, T/C [8] of 79.2%, a viability, T/C [9] of 95.5% and a viability, T/C [10] of 80.5%. It also gave a viability, T/C [11] of 98.9%, a viability, T/C [12] of 95.9% and a viability, T/C [13] of 79.4%. It also gave a viability, T/C [14] of 81.5%, a viability, T/C [15] of 69.1% and a viability, T/C [16] of 87%. It also gave a viability, T/C [17] of 68.1%, a viability, T/C [18] of 89.6% and a viability, T/C [19] of 104%. For the same molecule, the viability, T/C [20] was 115%, the viability, T/C [21] was 117% and the viability, T/C [22] was 113%. The viability, T/C [23] was 96.8%, the viability, T/C [24] was 88.8% and the viability, T/C [25] was 115%. It also gave a viability, T/C [26] of 121%, a viability, T/C [27] of 122% and a viability, T/C [28] of 117%. It also gave a viability, T/C [29] of 72% and a viability, T/C [30] of 89.5%.
